The source of these data is patent US12590062B2, “PD-1/PD-L1 inhibitors” (Gilead Sciences, Inc., priority 2017, dated 2026).

SMILES strings stand for the structures.

In one test the target is T1, PD-1/PD-L1 interaction (Homo sapiens, UniProt Q9NZQ7).
T1 construct: expressed in transfected cells; host or cells: CHO cells (aAPC-PD-L1) co-cultured with Jurkat cells overexpressing PD-1 and an NFAT-luciferase reporter
T1 sequence (Q9NZQ7 19-290): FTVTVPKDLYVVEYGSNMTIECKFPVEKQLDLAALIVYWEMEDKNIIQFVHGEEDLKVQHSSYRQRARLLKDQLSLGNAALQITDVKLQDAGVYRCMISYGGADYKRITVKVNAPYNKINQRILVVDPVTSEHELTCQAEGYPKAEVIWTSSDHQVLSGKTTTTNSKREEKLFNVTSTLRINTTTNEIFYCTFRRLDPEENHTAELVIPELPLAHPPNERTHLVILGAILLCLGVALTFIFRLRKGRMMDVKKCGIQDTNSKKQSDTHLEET
As to the kind of experiment: PD-1/PD-L1 NFAT reporter co-culture assay. Format: cell-based.
Settings: not given
As for the experimental part: PD-1/PD-L1 NEAT Reporter Assay:
Compounds were tested in afunctional co-culture reporter assay in which TCR-mediated NFAT activity is inhibited by the engagement of PD-1 with PD-L1. […] CHO cells expressing surface-bound anti-CD3 antibodies and PD-L1 (artificial antigen presenting cells, aAPC-PD-L1) were first seeded overnight. Jurkat cells overexpressing PD-1 and expressing a luciferase construct under NFAT control are diluted in RPMI assay medium (RPMI 1640 with 2% FBS), mixed with compounds, and immediately seeded on the monolayer of aAPC-PD-L1. The co-culture is then incubated for 6 hrs at 37° C. Luciferase activity is assessed by adding the ONE-Glo reagent and measuring luminescence with a plate reader. EC50 values are calculated from the fit of the dose-response curves to a four-parameter equation (Table 3).
Take `COc1nc(OCc2cccc(-c3cccc(COc4nc(OC)c(CNCc5cc(O)no5)cc4Cl)c3C)c2C)c(Cl)cc1CNCc1cc(O)no1` [Example 63, 5,5′-(((((((2,2′-dimethyl-[1,1′-biphenyl]-3,3′-diyl)bis(methylene))bis(oxy))bis(5-chloro-2-methoxypyridine-6,3-diyl))bis(methylene))bis(azanediyl))bis(methylene))bis(isoxazol-3-ol)]: the EC50 (usually the concentration that produces a half-maximal response) was no less than 50000 nM.

The test is the same for the next values; noted with them: Jurkat PD-1 NFAT-luciferase cells co-cultured with aAPC-PD-L1 CHO cells, 6 hrs at 37° C.; read-out: EC50 NFAT Luciferase.
For the compound `COc1nc(OCc2cccc(-c3cccc(COc4nc(OC)c(C(CC(=O)O)N(C)C)cc4Cl)c3C)c2C)c(Cl)cc1C(CC(=O)O)N(C)C` (mixture of isomers) [Example 236, 3,3′-((((2,2′-dimethyl-[1,1′-biphenyl]-3,3′-diyl)bis(methylene))bis(oxy))bis(5-chloro-2-methoxypyridine-6,3-diyl))bis(3-(dimethylamino)propanoic acid)], the EC50 amounted to 5030 nM. On the same count and under the same terms, next, `COc1nc(OCc2cccc(-c3cccc(COc4nc(OC)c(CN5CC(NC(C)=O)C5)cc4Cl)c3C)c2C)c(Cl)cc1CN1CC(NC(C)=O)C1` [Example 37, N,N′-((((((2,2′-dimethyl-[1,1′-biphenyl]-3,3′-diyl)bis(methylene))bis(oxy))bis(5-chloro-2-methoxypyridine-6,3-diyl))bis(methylene))bis(azetidine-1,3-diyl))diacetamide]: 894 nM. For `COc1nc(OCc2cccc(-c3cccc(COc4nc(OC)c(CN[C@@](C)(CO)C(=O)O)cc4Cl)c3C)c2C)c(Cl)cc1CN[C@@](C)(CO)C(=O)O` [Example 44, (2S,2′S)-2,2′-((((((2,2′-dimethyl-[1,1′-biphenyl]-3,3′-diyl)bis(methylene))bis(oxy))bis(5-chloro-2-methoxypyridine-6,3-diyl))bis(methylene))bis(azanediyl))bis(3-hydroxy-2-methylpropanoic acid)], the concentration for a half-maximal effect (EC50) came out at 62 nM. Same read-out and setting: with `COc1nc(OCc2cccc(-c3cccc(COc4nc(OC)c(CN[C@](C)(CO)C(=O)O)cc4Br)c3C)c2C)c(Br)cc1CN[C@](C)(CO)C(=O)O` [Example 46, (2R,2′R)-2,2′-((((((2,2′-dimethyl-[1,1′-biphenyl]-3,3′-diyl)bis(methylene))bis(oxy))bis(5-bromo-2-methoxypyridine-6,3-diyl))bis(methylene))bis(azanediyl))bis(3-hydroxy-2-methylpropanoic acid)] the figure was 87 nM; with `COc1nc(OCc2cccc(-c3cccc(COc4nc(OC)c(CN[C@@H](CO)C(=O)O)cc4Cl)c3C)c2C)c(Cl)cc1CN[C@@H](CO)C(=O)O` [Example 50, (2S,2′S)-2,2′-((((((2,2′-dimethyl-[1,1′-biphenyl]-3,3′-diyl)bis(methylene))bis(oxy))bis(5-chloro-2-methoxypyridine-6,3-diyl))bis(methylene))bis(azanediyl))bis(3-hydroxypropanoic acid)], 76 nM. In the case of `COc1nc(OCc2cccc(-c3cccc(COc4nc(OC)c(CN[C@H](C(=O)O)[C@@H](C)O)cc4Cl)c3C)c2C)c(Cl)cc1CN[C@H](C(=O)O)[C@@H](C)O` [Example 51, (2S,2′S,3R,3′R)-2,2′-((((((2,2′-dimethyl-[1,1′-biphenyl]-3,3′-diyl)bis(methylene))bis(oxy))bis(5-chloro-2-methoxypyridine-6,3-diyl))bis(methylene))bis(azanediyl))bis(3-hydroxybutanoic acid)], the EC50 came out at 105 nM.

As for `COc1nc(OCc2cccc(-c3cccc(COc4nc(OC)c(CNC(CO)c5nn[nH]n5)cc4Cl)c3C)c2C)c(Cl)cc1CNC(CO)c1nn[nH]n1` (stereo not shown) [Example 52, 2,2′-((((((2,2′-dimethyl-[1,1′-biphenyl]-3,3′-diyl)bis(methylene))bis(oxy))bis(5-chloro-2-methoxypyridine-6,3-diyl))bis(methylene))bis(azanediyl))bis(2-(2H-tetrazol-5-yl)ethan-1-ol)], the EC50 was determined as 19800 nM. On the same count and under the same terms, next, `Cc1c(COc2cc(OCc3cncc(C#N)c3)c(CN3CCCC[C@H]3C(=O)O)cc2Cl)cccc1-c1cccc(COc2cc(OCc3cncc(C#N)c3)c(CN3CCCC[C@H]3C(=O)O)cc2Cl)c1C` [Example 53, (2S,2′S)-1,1′-(((((2,2′-dimethyl-[1,1′-biphenyl]-3,3′-diyl)bis(methylene))bis(oxy))bis(5-chloro-2-((5-cyanopyridin-3-yl)methoxy)-4,1-phenylene))bis(methylene))bis(piperidine-2-carboxylic acid)]: 722 nM; `CCOC(=O)C[C@H](O)CNCc1cc(C2CC2)c(OCc2cccc(-c3cccc(COc4nc(OC)c(CNC[C@@H](O)CC(=O)O)cc4C4CC4)c3C)c2C)nc1OC` [Example 56, (S)-4-(((5-cyclopropyl-6-((3′-(((3-cyclopropyl-5-((((S)-4-ethoxy-2-hydroxy-4-oxobutyl)amino)methyl)-6-methoxypyridin-2-yl)oxy)methyl)-2,2′-dimethyl-[1,1′-biphenyl]-3-yl)methoxy)-2-methoxypyridin-3-yl)methyl)amino)-3-hydroxybutanoic acid]: no less than 50000 nM. Same read-out and setting: with `Cc1c(COc2cc(OCc3cccc(S(C)(=O)=O)c3)c(CN[C@@](C)(CO)C(=O)O)cc2Cl)cccc1-c1cccc(COc2cc(OCc3cccc(S(C)(=O)=O)c3)c(CN[C@@](C)(CO)C(=O)O)cc2Cl)c1C` [Example 57, (2S,2′S)-2,2′-((((((2,2′-dimethyl-[1,1′-biphenyl]-3,3′-diyl)bis(methylene))bis(oxy))bis(5-chloro-2-((3-(methylsulfonyl)benzyl)oxy)-4,1-phenylene))bis(methylene))bis(azanediyl))bis(3-hydroxy-2-methylpropanoic acid)] the figure was 351 nM. With `COc1nc(OCc2cccc(-c3cccc(COc4nc(OC)c(CN5CCc6[nH]cnc6C5C(=O)O)cc4Cl)c3C)c2C)c(Cl)cc1CN1CCc2[nH]cnc2C1C(=O)O` (stereo not shown) [Example 62, 5,5′-(((((2,2′-dimethyl-[1,1′-biphenyl]-3,3′-diyl)bis(methylene))bis(oxy))bis(5-chloro-2-methoxypyridine-6,3-diyl))bis(methylene))bis(4,5,6,7-tetrahydro-1H-imidazo[4,5-c]pyridine-4-carboxylic acid)], the EC50 was found to be 19500 nM. On the same count and under the same terms, with `COc1nc(OCc2cccc(-c3cccc(COc4nc(OC)c(CN[C@](C)(CO)C(=O)O)cc4C4CC4)c3C)c2C)c(C2CC2)cc1CN[C@](C)(CO)C(=O)O` [Example 64, (2R,2′R)-2,2′-((((((2,2′-dimethyl-[1,1′-biphenyl]-3,3′-diyl)bis(methylene))bis(oxy))bis(5-cyclopropyl-2-methoxypyridine-6,3-diyl))bis(methylene))bis(azanediyl))bis(3-hydroxy-2-methylpropanoic acid)] the figure was 9780 nM; with `COc1nc(OCc2cccc(-c3cccc(COc4nc(OC)c(CN5CCC5C(N)=O)cc4Cl)c3C)c2C)c(Cl)cc1CN1CCC1C(N)=O` (stereo not shown) [Example 65, 1,1′-(((((2,2′-dimethyl-[1,1′-biphenyl]-3,3′-diyl)bis(methylene))bis(oxy))bis(5-chloro-2-methoxypyridine-6,3-diyl))bis(methylene))bis(azetidine-2-carboxamide)], 3350 nM; with `COc1nc(OCc2cccc(-c3cccc(COc4nc(OC)c(CN[C@@H]5CCC[C@H]5C(=O)O)cc4Cl)c3C)c2C)c(Cl)cc1CN[C@@H]1CCC[C@H]1C(=O)O` [Example 75, (1R,1′R,2R,2′R)-2,2′-((((((2,2′-dimethyl-[1,1′-biphenyl]-3,3′-diyl)bis(methylene))bis(oxy))bis(5-chloro-2-methoxypyridine-6,3-diyl))bis(methylene))bis(azanediyl))bis(cyclopentane-1-carboxylic acid)], 384 nM. On the same count and under the same terms, with `COc1nc(OCc2cccc(-c3cccc(COc4nc(OC)c(CNCC(C)(C)C(=O)O)cc4Cl)c3C)c2C)c(Cl)cc1CNCC(C)(C)C(=O)O` [Example 77, 3,3′-((((((2,2′-dimethyl-[1,1′-biphenyl]-3,3′-diyl)bis(methylene))bis(oxy))bis(5-chloro-2-methoxypyridine-6,3-diyl))bis(methylene))bis(azanediyl))bis(2,2-dimethylpropanoic acid)] the figure was no less than 50000 nM; with `COc1nc(OCc2cccc(-c3cccc(COc4nc(OC)c(CN[C@@H]5CCC[C@@H]5C(=O)O)cc4Cl)c3C)c2C)c(Cl)cc1CN[C@@H]1CCC[C@@H]1C(=O)O` [Example 79, (1S,1′S,2R,2′R)-2,2′-((((((2,2′-dimethyl-[1,1′-biphenyl]-3,3′-diyl)bis(methylene))bis(oxy))bis(5-chloro-2-methoxypyridine-6,3-diyl))bis(methylene))bis(azanediyl))bis(cyclopentane-1-carboxylicacid)], 381 nM. The same measure, in the same setting: next, `COc1nc(OCc2cccc(-c3cccc(COc4nc(OC)c(CN[C@H]5CCCC[C@@H]5C(=O)O)cc4Cl)c3C)c2C)c(Cl)cc1CN[C@H]1CCCC[C@@H]1C(=O)O` [Example 80, (1S,1′S,2S,2′S)-2,2′-((((((2,2′-dimethyl-[1,1′-biphenyl]-3,3′-diyl)bis(methylene))bis(oxy))bis(5-chloro-2-methoxypyridine-6,3-diyl))bis(methylene))bis(azanediyl))bis(cyclohexane-1-carboxylic acid)]: no less than 50000 nM; `COc1nc(OCc2cccc(-c3cccc(COc4nc(OC)c(CNC(C)(C)CC(=O)O)cc4Cl)c3C)c2C)c(Cl)cc1CNC(C)(C)CC(=O)O` [Example 82, 3,3′-((((((2,2′-dimethyl-[1,1′-biphenyl]-3,3′-diyl)bis(methylene))bis(oxy))bis(5-chloro-2-methoxypyridine-6,3-diyl))bis(methylene))bis(azanediyl))bis(3-methylbutanoic acid)]: 1710 nM.
